Laboratory results reported in paper PMC6208485, “Discovery of the first macrolide antibiotic binding protein in Mycobacterium tuberculosis: a new antibiotic resistance drug target” (Protein & Cell, 2018).

Target: MABP-1 (Rv3197) (Mycobacterium tuberculosis, UniProt O53343)
Sequence (O53343 entry or part of it): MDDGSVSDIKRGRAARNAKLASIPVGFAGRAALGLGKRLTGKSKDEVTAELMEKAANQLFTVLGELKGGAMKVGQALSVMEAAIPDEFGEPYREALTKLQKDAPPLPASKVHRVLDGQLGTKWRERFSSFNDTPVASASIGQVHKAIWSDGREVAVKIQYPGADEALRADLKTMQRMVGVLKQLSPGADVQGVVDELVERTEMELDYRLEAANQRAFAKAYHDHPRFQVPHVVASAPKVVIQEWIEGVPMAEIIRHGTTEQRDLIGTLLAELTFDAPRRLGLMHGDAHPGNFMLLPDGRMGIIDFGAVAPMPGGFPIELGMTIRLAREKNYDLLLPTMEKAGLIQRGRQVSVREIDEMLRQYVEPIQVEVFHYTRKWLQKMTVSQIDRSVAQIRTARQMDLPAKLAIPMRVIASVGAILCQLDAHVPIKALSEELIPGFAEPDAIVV

Row | SMILES | crystal structure of the complex
1 | CC[C@H]1OC(=O)[C@H](C)[C@@H](O[C@H]2C[C@@](C)(OC)[C@@H](O)[C@H](C)O2)[C@H](C)[C@@H](O[C@@H]2O[C@H](C)C[C@H](N(C)C)[C@H]2O)[C@](C)(O)C[C@@H](C)C(=O)[C@H](C)[C@@H](O)[C@]1(C)O [erythromycin] | The electron density for erythromycin was unequivocal revealing it is located in a shallow pocket
2 | Nc1ncnc2c1ncn2[C@@H]1O[C@H](COP(=O)(O)OP(=O)(O)O)[C@@H](O)[C@H]1O [ADP] | crystal structures of MABP-1 in complex with AMPPNP and with ADP, were determined
3 | Nc1ncnc2c1ncn2[C@@H]1O[C@H](COP(=O)(O)OP(=O)(O)NP(=O)(O)O)[C@@H](O)[C@H]1O [AMPPNP] | crystal structures of MABP-1 in complex with AMPPNP and with ADP, were determined
